With `COC(=O)C(=O)Nc1ccc(C(CC2CCCC2)C(=O)Nc2nccs2)cc1` (stereo not drawn) the melting point was 95 to 98 °C. Molecule `CCOC(=O)c1cnc(-c2cc3cccc([N+](=O)[O-])c3n2COC)s1` has a melting point of 92 to 93 °C. For `Nc1cc(Cl)c(Cl)cc1C(=O)O`, the melting point was 196 to 203 °C. In the case of `Cc1cccnc1-c1cc2cccnc2c(Cl)n1`, the melting point is reported as 130 to 131 °C. `CC(Cc1cc(F)cc2c(Cl)coc12)NC(=O)OC(C)(C)C` (stereo not drawn) gave a melting point of 127 to 129 °C. For `CC(=O)NCCC1CCc2ccc3nc(CCc4ccccc4)oc3c21` (stereo not drawn), the melting point was 85 to 87 °C. `COCCN1CN(C)C(=O)N(c2nc3c(s2)C(=O)CC(C)(C)C3)C1` showed a melting point of 136 to 137 °C. Molecule `COCCOc1cc2c(Nc3cc(OC)c(Cl)cc3Cl)c(C#N)cnc2cc1OCC1CCN(C)CC1` has a melting point of 153 to 155 °C. For `CCOC(=O)c1cnc2c(NC(=O)c3c(Cl)cccc3Cl)cccc2c1S`, the melting point was 197 to 199 °C. In the case of `N#Cc1c[nH]c(Cl)c1-c1cccc(F)c1`, the melting point is reported as 158 to 161 °C. For `COc1cccc2c1OC(C(=O)Nc1ccncc1)C2CC(=O)O` (stereo not drawn), the melting point was 227 to 233 °C. `O=c1nc(-c2ccc(F)cc2)c2ccccc2[nH]1` gave a melting point of 294 to 298 °C. `Cc1nc(Br)c(C=O)n1Cc1cc2c(cc1Cl)OCO2` gave a melting point of 141 °C. In the case of `O=C(O)c1cc(-c2ccc3occc3c2)nn(Cc2ccc(F)cc2)c1=O`, the melting point is reported as 207 to 210 °C. `O=[N+]([O-])c1ccc(OCC(O)COc2ccc([N+](=O)[O-])cc2)cc1` gave a melting point of 144 to 145 °C. For `Cc1ccc(NC(=O)c2c(C)cccc2NC(=O)OC(C)(C)C)cc1`, the melting point was 250 °C. `O=C(NC(=O)c1ccc(F)cc1Cl)Nc1ccc(C(F)(F)F)c(F)c1` showed a melting point of 181 °C. With `CCCOc1ccc(S(C)(=O)=O)cc1C(=O)Nc1c(CC)n[nH]c1C(N)=O` the melting point was 209 to 210 °C. `CCOC(=O)c1cccc2c1Nc1ccc(C(=O)c3ccccc3)cc1N2` showed a melting point of 175 to 177 °C. `O=C(CCC(=O)c1ccc(CCNS(=O)(=O)c2ccccc2)cc1)Nc1nnn[nH]1` showed a melting point of 241 to 242 °C. Molecule `CCN(C)c1nc(-c2ccncc2)nc2sc(C#N)c(C)c12` has a melting point of 162 to 164 °C. In the case of `COc1ccc2c(c1)C=Cc1cc(C)ccc1C2c1cn(-c2ccnc(N(C)CC(=O)Nc3nc(CC(=O)O)cs3)n2)c(=O)[nH]c1=O` (stereo not drawn), the melting point is reported as 186 °C. `CCCCc1nc2c(c(=O)[nH]1)CN(C(=O)OCC[Si](C)(C)C)CC2` gave a melting point of 152 to 155 °C. For `O=C(CCCN1C(=O)c2ccccc2C1=O)N1CCCC2=C1CCc1cc(Cl)ccc12`, the melting point was 182 to 183 °C. For `C=C[C@H]1CC(C(=O)OC)=C[C@@H](OC(C)C)[C@@H]1NC(C)=O`, the melting point was 132 to 133 °C. `COc1ccccc1N1CCN(CCCNC(=O)c2cc(OC(C)=O)cc3c(=O)c(C)c(-c4ccccc4)oc23)CC1` showed a melting point of 148 to 149 °C. In the case of `COc1ccc(Oc2c(Cl)cc(-n3ncc(=O)[nH]c3=O)cc2Cl)cc1C=O`, the melting point is reported as 184 to 187 °C. With `COC(=O)C=Cc1cnc(SC)nc1N` the melting point was 192 to 196 °C. `CN1CC[C@@H](c2c(O)cc(O)c3c(=O)cc(-c4cccc(F)c4Br)oc23)[C@@H]1CO` showed a melting point of 237 to 239 °C. With `CC(CF)c1ccc(NC(=O)N(C)C)cc1` (stereo not drawn) the melting point was 145 to 146 °C. `COc1cc(C)c(C(=O)c2c(OC)cnc(Br)c2Cl)c(OC)c1OC` showed a melting point of 97 to 99 °C. `CON=C(C)c1c(C)oc2c(-n3c(=O)cc(C(F)(F)F)n(C)c3=O)c(F)cc(Cl)c12` gave a melting point of 65 to 67 °C. Work on `CCc1noc(-c2ncc3[nH]c4ccc(C5CC=CCC5)cc4c3c2C)n1` (stereo not drawn) yielded a melting point of 247 to 248 °C. In the case of `O=C(O)c1cc(=O)c2c([nH]1)-c1ccccc1SC2`, the melting point is reported as 256 to 257 °C. Work on `CCOC(=O)C=Cc1ccc(C#CC2(O)CN3CCC2CC3)c(OCC)c1` (stereo not drawn) yielded a melting point of 152 to 153 °C. Work on `COc1cc(Cn2c(=S)sc3ccccc32)cc(OC)c1O` yielded a melting point of 141 to 142 °C. In the case of `O=C(Nc1ccc(Cl)c(C(F)(F)F)c1)C1C(=O)C2CCC(C2)C1=O` (stereo not drawn), the melting point is reported as 136 to 137 °C. Work on `COc1ccccc1C(=C/C=C/C(=O)Oc1ccc([N+](=O)[O-])cc1)c1ccccc1OC` yielded a melting point of 142 to 143 °C. Molecule `CCCCCCCCCCCCc1csc(-c2c(Cl)c(Cl)c(-c3cc(CCCCCCCCCCCC)cs3)c3nsnc23)c1` has a melting point of 79 to 80 °C. `CCCOc1ccccc1-c1nc2ncccc2c(=O)[nH]1` gave a melting point of 110 to 111 °C. For `CCCN(C1CC(C)(C)Oc2ccc(O)cc21)S(=O)(=O)CC` (stereo not drawn), the melting point was 173 to 175 °C. Work on `CC1(C)CCn2c(nc(-c3ccccn3)cc2=O)N1` yielded a melting point of 345 to 347 °C. In the case of `COc1ccc(-c2cc(C(=O)NCc3ccccc3)c(=O)n(C)n2)cc1`, the melting point is reported as 145 to 146 °C. With `CN1CC2CC1CN2c1ccc(NC=C2C(=O)NC(=O)c3ccc(I)cc32)cc1` (stereo not drawn) the melting point was 210 to 211 °C. Molecule `COc1ccc(-c2cnc(NS(=O)(=O)Cc3ccccc3)c(Cc3ccccc3)n2)cc1` has a melting point of 213 to 215 °C. With `CC(C)(C)c1ccc(C(O)CCCN2CCC(=C3c4ccccc4COc4ccccc43)CC2)cc1` (stereo not drawn) the melting point was 160 to 161 °C. `CN(C(=O)Nc1ccccc1C=Cc1cc(C(C)(C)C)c(O)c(C(C)(C)C)c1)C1CCN(Cc2ccc(F)cc2)CC1` showed a melting point of 174 to 175 °C. For `CNc1cccc(OC)c1N`, the melting point was 60 to 61 °C. With `O=C(O)c1ccc(N2CCCCC2)c(NC(=O)C(CS)Cc2ccccc2)c1` (stereo not drawn) the melting point was 142 to 146 °C. For `CC(=O)Nc1nc2c(Oc3cc(-c4ccc(Br)cc4)ncn3)cccc2s1`, the melting point was 271 to 272 °C. `C[C@@H]1C(=O)N(CO)Cc2ccccc2[C@@H]1C` (relative stereo) gave a melting point of 91 to 92 °C. In the case of `Cc1cc(C)c2ccc(N)nc2n1`, the melting point is reported as 215 to 220 °C. With `O=C(NO)c1ccc(CNC(=O)c2[nH]c(-c3ccoc3)cc2-c2ccc(O)cc2)cc1` the melting point was 159 to 160 °C. With `CN(C(=O)Nc1nc(OCC(F)(F)F)nc(OCC(F)(F)F)n1)c1ccc(Cl)cc1` the melting point was 218 to 219 °C. With `COc1ccc(CNC(=O)c2cccnc2N)cc1` the melting point was 165 to 166 °C. `CCCCOCCOc1ccc(-c2cc3c4c(c2)CCN4CCCC(C(=O)O)=C3)cc1` gave a melting point of 217 to 218 °C. In the case of `O=c1cc(C=Cc2ccc(Cl)cc2)oc(-c2ccccc2)c1`, the melting point is reported as 169 to 171 °C. Work on `COc1ccc(S(=O)(=O)N2C(=O)C(N)(c3ccccc3OC)c3cc(Cl)ccc32)c(OC)c1` (stereo not drawn) yielded a melting point of 172 to 173 °C. With `Fc1ccc(C#Cc2ccnc(Cl)n2)cc1` the melting point was 125 to 126 °C. Molecule `COc1cccc(OC)c1-c1ccc(C[C@H](NC(=S)c2c(Cl)cccc2Cl)C(=O)O)cc1` has a melting point of 180 °C. In the case of `Cc1cc2nnc(C)n2nc1-c1cccc(C(F)(F)F)c1`, the melting point is reported as 185 to 187 °C. In the case of `CCCCCCc1ccc(-c2ccc(OC(=O)C3(C#N)CCCC(C)C3)cc2)cc1` (stereo not drawn), the melting point is reported as 51 °C. In the case of `CCc1cc(Br)cc(NC(=O)C=NO)c1`, the melting point is reported as 176 to 178 °C. Work on `C=CCOc1c(Cl)cc(C2=NNC(=O)CC2)cc1Cl` yielded a melting point of 137 °C. Work on `CSC(=NCc1cccnc1)NC#N` yielded a melting point of 152 to 154 °C. `CCCn1cc2c(n1)c(N)nc1ccccc12` gave a melting point of 225 to 227 °C. `CC#CCOc1ccc(SC(C(=O)NO)c2ccc(OC)cc2)cc1` (stereo not drawn) gave a melting point of 156 °C. `CN1C(=O)NC(N)C1=O` (stereo not drawn) showed a melting point of 122 to 125 °C. `CCN(CC)CC#CCCC(=O)C(O)(c1ccccc1)C1CCCCC1` (stereo not drawn) gave a melting point of 112 to 115 °C. With `CCCCC(=O)C(Cc1ccc(C(=O)OC)cc1)c1ccccc1` (stereo not drawn) the melting point was 58 °C. `N#Cc1c(N2CCN(C(=O)c3cccs3)CC2)c2cscc2n(Cc2ccc(F)cc2)c1=O` gave a melting point of 238 °C. In the case of `Fc1ccccc1NC(=S)c1ccccn1`, the melting point is reported as 94 to 97 °C. In the case of `CN(C)S(=O)(=O)c1ccc(C#N)c(C(F)(F)F)c1`, the melting point is reported as 133 to 136 °C. `CC(C)(C)Oc1cccc(Cl)c1C(=O)O` showed a melting point of 117 to 119 °C. Work on `COc1cccc(NC(=O)NC2CC(c3ccccc3F)c3ccccc3N(CC(=O)NC(C)(C)C)C2=O)c1` (stereo not drawn) yielded a melting point of 265 to 280 °C. With `COC(=O)C(c1ccccc1)N1C(=O)C(N=[N+]=[N-])C1Sc1nnc(C)s1` (stereo not drawn) the melting point was 81 to 84 °C. `CCCCCCCCCCCCCCOc1cc(C(=O)OC)ccc1OC` gave a melting point of 77 to 79 °C. `O=c1cc2c(nn1-c1ccc(Cl)cc1F)CCCC2` gave a melting point of 104 to 108 °C. `CC(C)(C)OC(=O)N1CCC(CCNC2(c3ccccc3Cl)C(=O)Nc3cc(Cl)c(Cl)cc32)CC1` (stereo not drawn) showed a melting point of 248 to 249 °C. Work on `Cc1c(-c2ccccc2)oc2c(C(=O)NCCCN3CCC(C(=O)c4ccc(F)cc4)CC3)cccc2c1=O` yielded a melting point of 181 to 183 °C. With `Cc1cc(C)c2c(c1C)C(C(=O)O)=C(Cl)C2=O` the melting point was 194 °C. For `CCOC(=O)C1C=CC(c2ccccc2)n2c(=O)n(CCl)c(=O)n21` (stereo not drawn), the melting point was 145 to 146 °C. Molecule `COC(=O)N1CCCc2onc(OC)c2C1` has a melting point of 68 to 70 °C. `COc1cccc(OC)c1C(=O)NC1=NN=C(C(C)(C)C)CS1` gave a melting point of 175 to 177 °C. In the case of `COCOc1ccc(-c2ncc3ccc(-c4csc(CN5CCN(C)CC5)c4)nc3n2)cc1`, the melting point is reported as > 268 °C. With `Cc1oc(-c2ccccc2)nc1COc1ccc(COc2ncccc2C=O)cc1` the melting point was 97 to 98 °C. `O=[N+]([O-])c1cccc(OCc2ccc3ccccc3n2)c1` gave a melting point of 109 °C. `O=C1NCCc2ccc(OCCCCN3CCN(c4cccc5c4CCCC5)CC3)nc2N1` gave a melting point of 185 to 186 °C. Work on `O=C(Cl)c1ccc(NC(=O)c2ccccc2-c2ccccc2)cc1` yielded a melting point of 118 to 120 °C. In the case of `CN1CCN(c2ccccc2OCc2cc(CCC(=O)O)c3c(c2)CC(NS(=O)(=O)c2ccc(Cl)cc2)CC3)CC1` (stereo not drawn), the melting point is reported as 122 °C. Molecule `Oc1c(Cl)cc(Cn2c(=S)sc3ccccc32)cc1Cl` has a melting point of 169 to 172 °C. With `Cn1cc(C(=O)NCc2ccc(Cl)cc2)c(=O)c2cc(CN3CCOCC3)cc(I)c21` the melting point was 156 to 158 °C. In the case of `N#CC(CCCCOc1ccccc1)(Cn1cncn1)c1ccccc1` (stereo not drawn), the melting point is reported as 95 to 96 °C. `Cc1c(NC(=O)C(CSC(=O)OCC(C)C)Cc2ccccc2)cccc1C(=O)O` (stereo not drawn) gave a melting point of 165 to 167 °C. With `Cc1c(CCO)c(=O)oc2cc(O)cc(O)c12` the melting point was 243 to 245 °C. With `COc1ccc(S(=O)(=O)N(Cc2ccccc2)c2c(C(=O)O)cnc3c2c(C)nn3-c2ccccc2)cc1` the melting point was 207 to 210 °C. With `Cn1c(=O)c(-c2ccccc2Cl)cc2cnc(NC3C4CN(C(=O)Nc5ccc(CC(=O)O)cc5)CC43)nc21` (stereo not drawn) the melting point was 190 to 197 °C. Molecule `CNc1c(F)cc2c(=O)c(C(=O)O)cn(-c3cc(N)c(F)cc3F)c2c1OC` has a melting point of 225 to 227 °C.
